These results are taken from PubChem BioAssay (NCI).

Test systems include UACC-62 melanoma; SK-OV-3 ovarian; HCT-116 colon; SF-295 CNS; M14 melanoma; RPMI-8226 leukemia; HOP-92 NSCLC; K-562 leukemia; HCT-15 colon; EKVX NSCLC; SK-MEL-2 melanoma; CCRF-CEM leukemia; OVCAR-8 ovarian; OVCAR-5 ovarian.
Holding throughout (test): NCI anticancer screen, dose series, 48 h

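In this assay, cells in 96-well plates receive the compound at five concentrations for 48 hours. Endpoints are linearly interpolated between the surrounding concentrations. At the GI50, growth is halved. The concentration for full growth arrest is given as TGI.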

As for `O=S(=O)(CF)OCCCCOS(=O)(=O)CF`, the TGI in the assay with UACC-62 melanoma, in the assay on SK-OV-3 ovarian, in the assay with HCT-116 colon, in the assay on SF-295 CNS, with M14 melanoma and with RPMI-8226 leukemia was more than 100 µM throughout. The TGI was 82.6 µM with HOP-92 NSCLC; more than 100 µM with K-562 leukemia; more than 100 µM in the assay on HCT-15 colon; more than 100 µM in the assay with EKVX NSCLC; more than 100 µM with SK-MEL-2 melanoma; more than 100 µM in the assay on CCRF-CEM leukemia. Besides, the TGI in the assay on OVCAR-8 ovarian was more than 100 µM.
Take `Clc1ccc(N2N=C(c3cccc(Nc4ccncc4)c3)CC2c2ccc(Br)cc2)cc1` (centres undefined): the GI50 was 1770 nM with UACC-62 melanoma; 2000 nM in the assay on SK-OV-3 ovarian; 1770 nM with SF-295 CNS; 1390 nM with HOP-92 NSCLC; 1660 nM in the assay with OVCAR-5 ovarian; 3.43 µM in the assay on CCRF-CEM leukemia. Moreover, the TGI in the assay on UACC-62 melanoma is 3.25 µM; with SK-OV-3 ovarian, 3.92 µM; with SF-295 CNS it was 3.2 µM; in the assay on HOP-92 NSCLC it was 2.85 µM; in the assay with OVCAR-5 ovarian, 3.1 µM; with CCRF-CEM leukemia, more than 100 µM.
For the compound `Cn1c(=O)[nH]c2c(c1=O)C(=O)CN2`, the TGI in the assay on SK-OV-3 ovarian, in the assay with HCT-116 colon, with SF-295 CNS, in the assay with M14 melanoma, in the assay on RPMI-8226 leukemia and in the assay with K-562 leukemia was more than 100 µM in each case. Besides, the TGI in the assay with HCT-15 colon, in the assay with EKVX NSCLC, in the assay on OVCAR-5 ovarian, with SK-MEL-2 melanoma, in the assay on CCRF-CEM leukemia and in the assay with OVCAR-8 ovarian was more than 100 µM throughout.
As for `N#CCCN(CCC#N)c1ccc(/C=C(/NC(=O)Nc2ccccc2Cl)NC(=O)c2cc([N+](=O)[O-])ccc2Cl)cc1`, the TGI in the assay on UACC-62 melanoma, in the assay with SK-OV-3 ovarian, in the assay on HCT-116 colon, with SF-295 CNS, in the assay on M14 melanoma and with RPMI-8226 leukemia was more than 100 µM throughout. Besides, the TGI with HOP-92 NSCLC, with K-562 leukemia, with HCT-15 colon, with EKVX NSCLC, with OVCAR-5 ovarian and with SK-MEL-2 melanoma was more than 100 µM in each case. Also, the TGI in the assay on CCRF-CEM leukemia and with OVCAR-8 ovarian was more than 100 µM in each case.
`CCOC(=O)c1ccc(N(CCOS(=O)(=O)c2ccc(C)cc2)CCOS(=O)(=O)c2ccc(C)cc2)cc1`: the TGI in the assay with UACC-62 melanoma, in the assay with HCT-116 colon, with SF-295 CNS, in the assay on M14 melanoma, in the assay on RPMI-8226 leukemia and in the assay on HOP-92 NSCLC was more than 100 µM each time. The TGI was more than 100 µM in the assay on K-562 leukemia; more than 100 µM with HCT-15 colon; more than 100 µM in the assay on EKVX NSCLC; more than 100 µM in the assay on OVCAR-5 ovarian; 66.8 µM in the assay with SK-MEL-2 melanoma; more than 100 µM in the assay with CCRF-CEM leukemia. Also, the TGI in the assay on OVCAR-8 ovarian is more than 100 µM.
Consider `C[Si](C)(C)/C=C/CN1C(=O)CCC1=O`, for which the TGI in the assay with UACC-62 melanoma, in the assay with SK-OV-3 ovarian, in the assay with HCT-116 colon, in the assay with M14 melanoma, with RPMI-8226 leukemia and with HOP-92 NSCLC was more than 100 µM in each case. Besides, the TGI in the assay on K-562 leukemia, with HCT-15 colon, in the assay on EKVX NSCLC, in the assay on OVCAR-5 ovarian, in the assay with SK-MEL-2 melanoma and in the assay with CCRF-CEM leukemia was more than 100 µM throughout.
On to `O=C(NCCN(CCNC(=O)c1cccc(=O)n1O)CCNC(=O)c1cccc(=O)n1O)c1cccc(=O)n1O`, for which the TGI with UACC-62 melanoma, in the assay with SK-OV-3 ovarian, with SF-295 CNS, in the assay with M14 melanoma, with RPMI-8226 leukemia and in the assay on HOP-92 NSCLC was more than 100 µM in each case. Also, the TGI with K-562 leukemia, in the assay with HCT-15 colon, in the assay on OVCAR-5 ovarian, in the assay on SK-MEL-2 melanoma, in the assay with CCRF-CEM leukemia and in the assay on OVCAR-8 ovarian was more than 100 µM each time.
Regarding `Cc1ccc(CN2CCN(Cc3ccc(C)o3)C(C)C2)o1` (centres undefined), the TGI in the assay on UACC-62 melanoma, in the assay with SK-OV-3 ovarian, in the assay with HCT-116 colon, in the assay on SF-295 CNS, in the assay with M14 melanoma and in the assay on RPMI-8226 leukemia was more than 100 µM each time. The TGI with HOP-92 NSCLC, with K-562 leukemia, in the assay on HCT-15 colon, with EKVX NSCLC, in the assay on OVCAR-5 ovarian and with SK-MEL-2 melanoma was more than 100 µM each time. The TGI in the assay with CCRF-CEM leukemia and in the assay on OVCAR-8 ovarian was more than 100 µM in each case.
On to `COC(=O)C(=O)C(C(C)=O)C(=O)C(=O)Nc1ccc(C)cc1C` (centres undefined), for which the TGI in the assay with UACC-62 melanoma, with SK-OV-3 ovarian, with HCT-116 colon, with SF-295 CNS, in the assay with M14 melanoma and in the assay with RPMI-8226 leukemia was more than 100 µM in each case. Besides, the TGI in the assay on HOP-92 NSCLC, in the assay on K-562 leukemia, in the assay on HCT-15 colon, with EKVX NSCLC, with OVCAR-5 ovarian and in the assay on SK-MEL-2 melanoma was more than 100 µM in each case. Also, the TGI in the assay on CCRF-CEM leukemia and in the assay on OVCAR-8 ovarian was more than 100 µM in each case.
For `COc1ccc(NC(/C(C(=O)C(=O)/C=C(\O)c2ccccc2)=C(\O)c2ccccc2)c2ccc(OC)cc2)cc1` (centres undefined), the TGI was more than 100 µM in the assay on UACC-62 melanoma; more than 100 µM with SK-OV-3 ovarian; more than 100 µM in the assay with HCT-116 colon; more than 100 µM in the assay on SF-295 CNS; more than 100 µM in the assay on M14 melanoma; 69.1 µM in the assay on RPMI-8226 leukemia. Further, the TGI in the assay on HOP-92 NSCLC is 75.8 µM; with K-562 leukemia, more than 100 µM; in the assay on HCT-15 colon it was more than 100 µM; in the assay on EKVX NSCLC, 50.9 µM; in the assay on OVCAR-5 ovarian, more than 100 µM; with SK-MEL-2 melanoma, 89 µM. The TGI in the assay on CCRF-CEM leukemia and in the assay with OVCAR-8 ovarian was more than 100 µM in each case.
Take `COc1ccc(N[C@@H]2c3cc4c(cc3C(c3cc(OC)c(O)c(OC)c3)[C@H]3C(=O)OCC32)OCO4)cc1OC` (some centres undefined): the TGI is more than 39.2 µM in the assay on UACC-62 melanoma; more than 52.1 µM in the assay with SK-OV-3 ovarian; more than 42.7 µM in the assay on HCT-116 colon; more than 31.7 µM with RPMI-8226 leukemia; more than 100 µM in the assay on HOP-92 NSCLC; more than 100 µM with K-562 leukemia. Besides, the TGI is more than 100 µM in the assay with HCT-15 colon; more than 100 µM in the assay with EKVX NSCLC; more than 100 µM in the assay on OVCAR-5 ovarian; more than 30.4 µM with SK-MEL-2 melanoma; more than 39.3 µM in the assay with CCRF-CEM leukemia; more than 100 µM in the assay on OVCAR-8 ovarian.
With `COc1cc(C(=O)OC2CC34CCNC35CC(OC5(OC)C2O)c2cc3c(cc24)OCO3)ccc1O` (centres undefined), the TGI in the assay with UACC-62 melanoma, with SK-OV-3 ovarian, with HCT-116 colon, with SF-295 CNS, with M14 melanoma and with RPMI-8226 leukemia was more than 100 µM each time. In addition, the TGI in the assay on HOP-92 NSCLC, in the assay with K-562 leukemia, in the assay with HCT-15 colon, in the assay on EKVX NSCLC, in the assay on OVCAR-5 ovarian and with SK-MEL-2 melanoma was more than 100 µM each time. In addition, the TGI in the assay on CCRF-CEM leukemia and with OVCAR-8 ovarian was more than 100 µM throughout.
As for `CC(=O)c1cccc(Nc2nc3ccccc3c3[nH]c4ccccc4c23)c1`, the TGI with UACC-62 melanoma is 5.71 µM; with SK-OV-3 ovarian, 43.7 µM; in the assay with HCT-116 colon, more than 100 µM; in the assay on SF-295 CNS it was 15.9 µM; in the assay with M14 melanoma, more than 100 µM; with RPMI-8226 leukemia it was 9.25 µM. Besides, the TGI with HOP-92 NSCLC was 22.2 µM; in the assay with K-562 leukemia, more than 100 µM; with HCT-15 colon, more than 100 µM; in the assay with EKVX NSCLC, 21.4 µM; in the assay with OVCAR-5 ovarian it was 96.3 µM; with SK-MEL-2 melanoma it was 24.2 µM. Also, the TGI in the assay with CCRF-CEM leukemia is more than 100 µM; in the assay with OVCAR-8 ovarian it was 74.9 µM.
In the case of `CCCCCC(/C=C/c1ncccc1OCCCCCC(=O)O)=N\NC1=NCCN1`, the TGI with UACC-62 melanoma, with SK-OV-3 ovarian, with HCT-116 colon, in the assay with SF-295 CNS, in the assay with M14 melanoma and with RPMI-8226 leukemia was more than 100 µM each time. In addition, the TGI with HOP-92 NSCLC, in the assay with K-562 leukemia, in the assay with HCT-15 colon, in the assay on EKVX NSCLC, with OVCAR-5 ovarian and in the assay on SK-MEL-2 melanoma was more than 100 µM throughout. Besides, the TGI in the assay on CCRF-CEM leukemia and in the assay on OVCAR-8 ovarian was more than 100 µM each time.
